Measured values taken from ChEMBL document CHEMBL1201862, “PubChem BioAssay data set” (2004).
Activity calls are given as the source filed them.

Key:
[1] = target: T1, Sentrin-specific protease 7 (Homo sapiens, UniProt Q9BQF6); experiment: SENP7 protease inhibitors, SAR follow-up, biochemical, luminescence (AID 504497); assay type: functional
T1 sequence (Q9BQF6 whole entry): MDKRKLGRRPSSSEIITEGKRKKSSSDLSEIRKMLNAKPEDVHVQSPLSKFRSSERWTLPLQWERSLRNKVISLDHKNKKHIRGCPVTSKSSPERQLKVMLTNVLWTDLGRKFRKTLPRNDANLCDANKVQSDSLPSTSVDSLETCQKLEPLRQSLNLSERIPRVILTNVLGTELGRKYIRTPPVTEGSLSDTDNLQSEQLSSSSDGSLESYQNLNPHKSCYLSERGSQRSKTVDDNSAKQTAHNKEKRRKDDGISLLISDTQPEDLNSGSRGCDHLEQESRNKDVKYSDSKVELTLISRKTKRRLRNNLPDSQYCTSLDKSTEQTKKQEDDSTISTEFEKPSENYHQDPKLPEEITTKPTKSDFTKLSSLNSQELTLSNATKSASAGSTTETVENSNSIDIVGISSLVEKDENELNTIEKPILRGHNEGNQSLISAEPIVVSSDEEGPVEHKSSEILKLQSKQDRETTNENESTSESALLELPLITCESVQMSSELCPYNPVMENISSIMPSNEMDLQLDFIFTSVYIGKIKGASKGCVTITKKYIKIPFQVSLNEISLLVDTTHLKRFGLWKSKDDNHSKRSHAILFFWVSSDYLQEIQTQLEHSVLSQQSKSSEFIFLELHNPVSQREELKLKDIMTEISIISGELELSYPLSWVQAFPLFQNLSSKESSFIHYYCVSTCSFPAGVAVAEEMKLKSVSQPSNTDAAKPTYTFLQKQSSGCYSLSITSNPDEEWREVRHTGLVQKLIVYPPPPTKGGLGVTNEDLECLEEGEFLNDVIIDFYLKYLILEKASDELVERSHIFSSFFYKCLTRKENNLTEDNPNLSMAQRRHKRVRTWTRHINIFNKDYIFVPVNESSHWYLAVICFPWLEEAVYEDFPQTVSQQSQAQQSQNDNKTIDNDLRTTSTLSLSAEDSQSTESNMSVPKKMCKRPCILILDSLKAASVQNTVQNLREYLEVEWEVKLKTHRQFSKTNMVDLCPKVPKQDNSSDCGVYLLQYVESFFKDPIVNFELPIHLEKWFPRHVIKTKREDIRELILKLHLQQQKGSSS

[2] = target: T2, Caspase-3 (Homo sapiens, UniProt P42574); experiment: SAR Analysis of small molecule inhibitors of Sentrin-specific proteases (SENPs) using a Caspase-3 Selectivity assay. [Related pubchem assays (depositor defined):AID2540, AID2599, AID434973, AID489001]; assay type: functional
T2 sequence (P42574 whole entry): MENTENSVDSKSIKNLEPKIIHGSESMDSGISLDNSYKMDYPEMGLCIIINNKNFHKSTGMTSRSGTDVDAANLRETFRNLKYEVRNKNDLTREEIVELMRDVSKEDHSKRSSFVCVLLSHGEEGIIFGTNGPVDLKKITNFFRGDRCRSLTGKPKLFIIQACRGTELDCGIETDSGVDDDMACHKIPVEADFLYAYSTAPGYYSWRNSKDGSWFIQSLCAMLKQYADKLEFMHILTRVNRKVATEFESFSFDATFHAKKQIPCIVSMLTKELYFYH

[3] = target: T2, Caspase-3; experiment: caspase-3 inhibitors as off-family protease, SAR follow-up, selectivity assay for SENP protease inhibitor project, biochemical, luminescence, set 2 (AID 588599); assay type: functional
[4] = target: T1, Sentrin-specific protease 7; experiment: SENP7 protease inhibitors, SAR follow-up, biochemical, luminescence, set 2 (AID 588600); assay type: functional
[5] = target: T3, Sentrin-specific protease 6 (Homo sapiens, UniProt Q9GZR1); experiment: SAR Analysis of small molecule inhibitors of Sentrin-specific protease 6 (SENP6) using a Luminescent assay. [Related pubchem assays (depositor defined):AID2582, AID2599]; assay type: functional
T3 sequence (Q9GZR1 whole entry): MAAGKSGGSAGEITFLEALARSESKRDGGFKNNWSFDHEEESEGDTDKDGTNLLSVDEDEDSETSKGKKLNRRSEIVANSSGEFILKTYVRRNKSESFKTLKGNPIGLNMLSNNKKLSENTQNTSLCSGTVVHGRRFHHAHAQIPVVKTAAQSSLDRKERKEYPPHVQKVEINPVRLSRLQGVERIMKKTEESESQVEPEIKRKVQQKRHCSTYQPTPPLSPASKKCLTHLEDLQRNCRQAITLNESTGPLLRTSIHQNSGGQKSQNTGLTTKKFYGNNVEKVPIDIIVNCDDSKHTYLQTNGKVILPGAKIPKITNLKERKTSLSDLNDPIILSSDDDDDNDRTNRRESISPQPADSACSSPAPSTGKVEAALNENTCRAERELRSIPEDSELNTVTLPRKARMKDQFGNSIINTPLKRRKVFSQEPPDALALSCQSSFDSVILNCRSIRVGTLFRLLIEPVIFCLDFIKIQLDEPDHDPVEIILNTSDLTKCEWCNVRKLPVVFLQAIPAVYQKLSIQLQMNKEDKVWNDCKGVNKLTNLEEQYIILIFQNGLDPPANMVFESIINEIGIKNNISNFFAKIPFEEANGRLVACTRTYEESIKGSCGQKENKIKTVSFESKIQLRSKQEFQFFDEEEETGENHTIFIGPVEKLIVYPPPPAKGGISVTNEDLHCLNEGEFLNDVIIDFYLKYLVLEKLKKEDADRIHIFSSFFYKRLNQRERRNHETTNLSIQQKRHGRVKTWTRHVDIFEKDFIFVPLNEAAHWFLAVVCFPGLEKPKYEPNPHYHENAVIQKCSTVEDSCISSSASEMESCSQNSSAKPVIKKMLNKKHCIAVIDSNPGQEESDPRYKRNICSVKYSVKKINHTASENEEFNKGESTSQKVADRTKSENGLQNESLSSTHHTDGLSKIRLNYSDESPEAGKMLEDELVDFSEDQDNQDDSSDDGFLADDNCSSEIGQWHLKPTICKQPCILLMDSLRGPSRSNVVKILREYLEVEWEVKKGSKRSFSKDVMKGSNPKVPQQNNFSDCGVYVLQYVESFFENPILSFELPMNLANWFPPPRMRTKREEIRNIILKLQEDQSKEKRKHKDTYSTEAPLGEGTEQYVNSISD

[6] = target: T4, Sentrin-specific protease 8 (Homo sapiens, UniProt Q96LD8); experiment: SENP8 protease inhibitors, SAR follow-up, biochemical, luminescence, set 2 (AID 588601); assay type: functional
T4 sequence (Q96LD8 whole entry): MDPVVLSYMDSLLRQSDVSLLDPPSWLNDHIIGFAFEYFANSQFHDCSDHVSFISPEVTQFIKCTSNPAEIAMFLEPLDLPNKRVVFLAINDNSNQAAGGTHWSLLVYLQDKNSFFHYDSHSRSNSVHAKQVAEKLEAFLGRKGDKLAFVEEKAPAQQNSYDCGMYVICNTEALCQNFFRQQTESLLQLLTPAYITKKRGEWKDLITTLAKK

[7] = target: T4, Sentrin-specific protease 8; experiment: SENP8 protease inhibitors, SAR follow-up, biochemical, luminescence (AID 504501); assay type: functional
[8] = tested on: Vero; experiment: host cell cytotoxicity of antiviral hits, dose response, cytotoxicity control for West Nile virus antiviral project, secondary assay (AID 1650); assay type: functional; details: Chlorocebus sabaeus
[9] = insulin promoter down-regulators in MIN6 cells, imaging, high-content screening, mouse beta cells (AID 1628); assay type: functional
[10] = cytotoxicity in MIN6 insulinoma cells, dose response, cytotoxicity control, cell-based, mouse insulinoma (AID 2122); assay type: functional;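 further: confirmatory high-throughput counterscreen run to flag cytotoxic compounds; mouse MIN-6 beta cells carrying an insulin promoter eGFP reporter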
[11] = tested on: BJ; experiment: cytotoxicity toward BJ-TERT fibroblasts, dose response, cell-based, RAS-independent, luminescence (AID 1933); assay type: functional; details: Homo sapiens
[12] = tested on: Streptococcus sp. 'group A'; experiment: growth inhibition of control SK(-) GAS strain, dose response, counter-screen for streptokinase expression inhibitor project, luminescence, kanamycin, BacTiterGlo, confirmation (AID 1900); assay type: functional, organism-based
[13] = cells; assay type: functional, cell-based
[14] = cells; assay type: functional, cell-based; remark: listed apart in the source
[15] = cytotoxicity toward DRD oncogenic fibroblasts, dose response, cell-based, non-viral oncogenic, luminescence (AID 1934); assay type: functional; details: Homo sapiens
[16] = tested on: BJ; experiment: cells; assay type: functional, cell-based; details: Homo sapiens
[17] = tested on: BJ; experiment: cytotoxicity toward Ras-transformed BJeLR fibroblasts, dose response, cell-based, alamar blue fluorescence, cherrypicked samples (AID 2631); assay type: functional; details: Homo sapiens;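 further: confirmatory dose-response assay in RAS-dependent BJ fibroblasts engineered with TERT, LT and ST, with cytotoxicity read by fluorescence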
[18] = Luminescence Cell-Based Dose Response HTS to Identify Inhibitors of 5'UTR Stem-Loop Driven Prion Protein mRNA Translation in H4 Neuroglioblastoma Cells. [Related pubchem assays: 1827 (Project Summary), 1813 (Primary HTS)]; assay type: functional
[19] = inhibitors of SNCA 5'UTR-driven reporter translation, confirmation, H4 neuroglioma cells, luminescence (AID 1988); assay type: functional, cell-based
[20] = NIH-3T3 fibroblast cytotoxicity, dose response, cytotoxicity control, cell-based, fluorescence, Alamar Blue, secondary assay (AID 2327); assay type: functional;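 further: NIH-3T3 mouse fibroblasts cultured with fluconazole at 8 µg/mL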
[21] = C. albicans growth with fluconazole, confirmation, fluorescence, retest (AID 2467); assay type: functional, cell-based
[22] = inhibitors of firefly luciferase expression or activity, dose response, H4 neuroglioma cells, luminescence (AID 1990); assay type: functional, cell-based
[23] = tested on: BJ; experiment: cytotoxicity toward BJ-TERT-LT-ST fibroblasts, dose response, cell-based, RAS-independent, luminescence (AID 1935); assay type: functional; details: Homo sapiens;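 further: BJ fibroblasts immortalized with TERT plus LT and ST oncogenes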
[24] = target: Latent membrane protein 1 (Human herpesvirus 4 (strain B95-8), UniProt P03230); experiment: TES1-eGFP NF-kB reporter inhibition versus Tet-On dsRED, dose response, selectivity assay for LMP1 NF-kB inhibitor project, imaging, HEK293T, dual-color eGFP/dsRED, cherry-picks (AID 588398); assay type: functional, cell-based
Chain of Latent membrane protein 1 (P03230 whole entry): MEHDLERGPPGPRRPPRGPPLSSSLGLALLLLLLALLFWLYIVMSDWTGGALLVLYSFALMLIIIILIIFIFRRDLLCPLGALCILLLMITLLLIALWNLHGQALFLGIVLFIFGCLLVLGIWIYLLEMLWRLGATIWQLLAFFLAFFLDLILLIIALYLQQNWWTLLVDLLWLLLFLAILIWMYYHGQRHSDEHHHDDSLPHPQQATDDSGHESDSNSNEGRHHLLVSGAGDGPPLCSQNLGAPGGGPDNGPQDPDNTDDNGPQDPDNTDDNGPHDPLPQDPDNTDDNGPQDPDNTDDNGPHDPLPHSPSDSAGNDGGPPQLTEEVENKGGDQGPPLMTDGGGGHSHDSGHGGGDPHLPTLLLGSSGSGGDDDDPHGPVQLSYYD

[25] = tested on: Vero; experiment: cells; assay type: functional; details: Chlorocebus sabaeus
[26] = tested on: Streptococcus; experiment: Group A Streptococcus viability loss, dose response, counter-screen for streptokinase expression inhibitor project, luminescence, BacTiterGlo (AID 1915); assay type: functional, organism-based;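 further: potency for reduction of bacterial viability or growth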
[27] = target: Aurora kinase A (Homo sapiens, UniProt O14965); assay type: functional;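 further: value from the Navigating the Kinome kinase panel profiling, panel entry STK6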
Chain of Aurora kinase A (O14965 whole entry): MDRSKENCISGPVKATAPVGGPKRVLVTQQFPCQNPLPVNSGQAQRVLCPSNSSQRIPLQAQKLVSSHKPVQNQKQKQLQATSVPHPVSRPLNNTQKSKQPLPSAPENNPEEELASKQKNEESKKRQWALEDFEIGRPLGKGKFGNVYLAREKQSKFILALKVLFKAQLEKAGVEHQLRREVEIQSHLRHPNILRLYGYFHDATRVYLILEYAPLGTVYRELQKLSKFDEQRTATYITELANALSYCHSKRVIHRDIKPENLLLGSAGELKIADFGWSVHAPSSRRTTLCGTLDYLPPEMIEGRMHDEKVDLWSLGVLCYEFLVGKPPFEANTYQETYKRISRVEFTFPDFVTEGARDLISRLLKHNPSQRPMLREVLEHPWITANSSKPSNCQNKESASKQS

[28] = target: High affinity nerve growth factor receptor (Homo sapiens, UniProt P04629); assay type: functional;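 further: NTRK1 tested as one member of a kinome-wide profiling panel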
Chain of High affinity nerve growth factor receptor (P04629 whole entry): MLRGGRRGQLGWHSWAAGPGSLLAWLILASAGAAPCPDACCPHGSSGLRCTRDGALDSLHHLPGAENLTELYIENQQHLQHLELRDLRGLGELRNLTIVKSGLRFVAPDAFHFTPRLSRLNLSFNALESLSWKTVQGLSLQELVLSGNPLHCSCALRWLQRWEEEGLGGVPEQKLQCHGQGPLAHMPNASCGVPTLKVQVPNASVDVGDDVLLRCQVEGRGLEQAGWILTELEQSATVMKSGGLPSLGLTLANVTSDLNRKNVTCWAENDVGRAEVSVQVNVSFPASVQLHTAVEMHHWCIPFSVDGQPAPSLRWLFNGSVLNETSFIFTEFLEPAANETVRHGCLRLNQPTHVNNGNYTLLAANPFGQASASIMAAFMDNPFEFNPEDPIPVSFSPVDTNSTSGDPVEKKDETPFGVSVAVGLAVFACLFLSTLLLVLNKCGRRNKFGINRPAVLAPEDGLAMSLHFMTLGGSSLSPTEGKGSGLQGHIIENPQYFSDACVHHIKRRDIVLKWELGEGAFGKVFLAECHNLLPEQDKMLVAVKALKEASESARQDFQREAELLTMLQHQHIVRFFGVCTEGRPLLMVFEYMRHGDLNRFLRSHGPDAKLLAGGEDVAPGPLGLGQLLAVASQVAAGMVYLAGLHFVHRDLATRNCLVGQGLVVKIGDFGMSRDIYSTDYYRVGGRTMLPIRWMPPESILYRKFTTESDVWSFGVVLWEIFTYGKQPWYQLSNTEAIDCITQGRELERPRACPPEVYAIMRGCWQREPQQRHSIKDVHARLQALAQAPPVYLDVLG

[29] = target: T5, Sphingosine 1-phosphate receptor 4 (Homo sapiens, UniProt O95977); experiment: Late-stage fluorescence-based dose-response cell-based counterscreen assay to identify agonists of the Sphingosine 1-Phosphate Receptor 3 (S1P3): Sphingosine 1-Phosphate Receptor 4 (S1P4) agonist assay.; assay type: functional
T5 sequence (O95977 whole entry): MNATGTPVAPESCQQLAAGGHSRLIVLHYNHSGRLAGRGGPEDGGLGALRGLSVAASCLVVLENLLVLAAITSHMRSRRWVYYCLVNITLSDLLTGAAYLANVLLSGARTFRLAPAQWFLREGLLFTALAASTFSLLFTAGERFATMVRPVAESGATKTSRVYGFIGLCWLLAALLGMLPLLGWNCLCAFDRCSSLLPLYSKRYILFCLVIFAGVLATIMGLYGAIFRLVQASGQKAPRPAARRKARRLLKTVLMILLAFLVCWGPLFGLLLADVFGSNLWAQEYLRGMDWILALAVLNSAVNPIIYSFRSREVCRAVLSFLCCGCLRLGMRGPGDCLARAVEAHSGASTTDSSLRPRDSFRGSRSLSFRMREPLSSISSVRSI

[30] = target: Sphingosine 1-phosphate receptor 2 (Homo sapiens, UniProt O95136); experiment: Late-stage fluorescence-based dose-response cell-based counterscreen assay to identify agonists of the Sphingosine 1-Phosphate Receptor 3 (S1P3): Sphingosine 1-Phosphate Receptor 2 (S1P2) agonist assay.; assay type: functional
Chain of Sphingosine 1-phosphate receptor 2 (O95136 whole entry): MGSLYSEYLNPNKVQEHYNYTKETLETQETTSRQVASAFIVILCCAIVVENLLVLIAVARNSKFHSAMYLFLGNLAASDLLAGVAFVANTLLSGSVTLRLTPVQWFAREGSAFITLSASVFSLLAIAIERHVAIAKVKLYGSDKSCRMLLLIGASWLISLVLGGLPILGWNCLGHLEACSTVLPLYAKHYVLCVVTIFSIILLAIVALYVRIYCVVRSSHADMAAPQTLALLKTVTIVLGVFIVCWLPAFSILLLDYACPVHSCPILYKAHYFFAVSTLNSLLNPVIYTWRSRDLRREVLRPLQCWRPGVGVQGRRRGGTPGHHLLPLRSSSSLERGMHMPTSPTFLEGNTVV

Fc1ccc(-c2noc(/C=C/c3ccccc3)n2)cc1
inactive: IC50 [5] > 99 µM | IC50 [7] > 99 µM
active: IC50 [1] 8.8 µM | IC50 [2] 18 µM | IC50 [3] 20.5 µM | IC50 [4] 3.38 µM | IC50 [6] 2.98 µM

CCN(CC)c1ccc(/C=N/Nc2nc3ccccc3[nH]2)c(O)c1
inconclusive: EC50 [15] 1.37 µM | EC50 [17] 0.571 µM | EC50 [20] 22.6 µM | EC50 [23] 1.37 µM
active: CC50 [8] 2.03 µM | IC50 [9] 2.45 µM | IC50 [10] 2.51 µM | EC50 [11] 1.22 µM | EC50 [12] 4.47 µM | EC50 [13] 2.56 µM | EC50 [14] 115 µM | EC50 [16] 2.15 µM | EC50 [18] 8.71 µM | EC50 [19] 2.64 µM | EC50 [21] 1.42 µM | EC50 [22] 6.26 µM | AC50 [24] 17.4 µM | CC50 [25] 1.59 µM | EC50 [26] 7.8 µM

CCOC(=O)C(C(N)=O)C(=S)Nc1ccc(C)cc1 (stereo not given)
active: Ki [27] 0.0501 µM | Ki [28] 5.01 µM

O=C(NC1CCCCC1)c1cc(C2CC2)on1
inactive: EC50 [29] > 50 µM | EC50 [30] > 50 µM
